Laboratory results taken from patent US20090215725A1, “Substituted 4-aminocyclohexane derivatives” (GRUNENTHAL GMBH, priority 2008, published 2009).

Tested on: Male Sprague Dawley rats
Assay: Chung model: mononeuropathic pain after spinal nerve ligation (mechanical allodynia, von Frey withdrawal threshold)
Format: in vivo
Conditions: rat, FIG. 1

`CN(C)C1(c2ccccc2)CCC(COCc2c[nH]c3ccc(F)cc23)CC1` (stereo not drawn) [Example 10, 1-Phenyl-4-(((5-fluoro-1H-indol-3-yl)methoxy)methyl)-N,N-dimethylcyclohexanamine] was tested, and the “effect on the undamaged, contralateral side” value (contralateral rear paw, tested dose) was “only a very small and statistically insignificant effect”, the “rise in the withdrawal threshold” value (ipsilateral rear paw, spinal nerve ligation, allodynia fall from approx. 55 g to 25 g) was “over 40 g” and the “allodynia condition (effectiveness in neuropathic pain)” value (ipsilateral side, spinal nerve ligation) was “almost completely relieved”.
